According to US10517889B2, “Modulators of SMAD7 expression” (Ionis Pharmaceuticals, Inc., priority 2017, dated 2019):
Strand notation (5' to 3'): a small letter for the sugar, then the base; units joined by * are phosphorothioate-linked, units joined directly phosphodiester-linked; [ ] holds rarer units or linkages, { } end groups; capitals alone tell only the bases. k = constrained ethyl (cEt); [5mC] = 5-methylcytosine; d = 2'-deoxy (DNA)

Each substance was assayed on human SMAD7 mRNA (assay: Antisense inhibition of human SMAD7 mRNA expression in Hep3B cells by 3-10-3 cEt gapmers, 10,000 nM, electroporation (Example 2)). Conditions: Hep3B cells, 10,000 nM antisense oligonucleotide, electroporation, approximately 24 hours, RT-PCR primer probe set RTS5062, relative to untreated control cells.
Type: cell-based
Summary of the method: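 qRT-PCR (RTS5062) of SMAD7 mRNA, normalised to RIBOGREEN total RNA, gave percent inhibition relative to untreated controls. Hep3B cells at 20,000 per well received 10,000 nM oligonucleotide by electroporation, with ~24 h treatment.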
In the case of “800050 (antisense kG*k[5mC]*kT*dT*dA*dT*dT*dT*dT*d[5mC]*d[5mC]*d[5mC]*dA*kA*kT*kT) [compound 800050]”, the “% Inhibition” value is reported as 10%.
In the case of “798820 (kT*k[5mC]*kT*d[5mC]*d[5mC]*dT*d[5mC]*d[5mC]*d[5mC]*dA*dG*dT*dA*kT*kG*k[5mC]; antisense) [compound 798820]”, the “% Inhibition” value is reported as 24%.
“798907 (kG*k[5mC]*kG*dG*d[5mC]*dT*dA*d[5mC]*d[5mC]*dG*dG*d[5mC]*dT*kG*kT*kT; antisense) [compound 798907]” was tested, and the “% Inhibition” value was 0%.
For “800076 (antisense k[5mC]*kG*k[5mC]*dT*dT*d[5mC]*d[5mC]*d[5mC]*dT*dA*d[5mC]*dA*d[5mC]*kA*kG*kT) [compound 800076]”, the “% Inhibition” value was 25%.
In the case of “798860 (kT*kG*kG*d[5mC]*dG*dG*dA*d[5mC]*dT*dT*dG*dA*dT*kG*kA*kA; antisense) [compound 798860]”, the “% Inhibition” value is reported as 22%.

Same assay, conditions: Hep3B cells, electroporation with 10,000 nM antisense oligonucleotide, approximately 24 hours, RTS5062, percent inhibition of SMAD7 mRNA relative to untreated control cells
For “799684 (antisense kA*kA*kT*dG*d[5mC]*dT*dG*dT*d[5mC]*dA*d[5mC]*d[5mC]*d[5mC]*kT*kG*kT) [compound 799684]”, the “% Inhibition” value was 52%.
“799622 (kT*kT*k[5mC]*dT*dA*dA*dA*dA*dA*dT*dG*dT*d[5mC]*k[5mC]*k[5mC]*kA; antisense) [compound 799622]” was tested, and the “% Inhibition” value was 45%.
With “799821 (antisense k[5mC]*k[5mC]*k[5mC]*d[5mC]*dA*dG*dA*dA*dA*dA*d[5mC]*dA*dG*k[5mC]*k[5mC]*k[5mC]) [compound 799821]” the “% Inhibition” value was 17%.
With “799295 (antisense kG*kA*k[5mC]*dT*d[5mC]*dG*d[5mC]*dG*dG*d[5mC]*d[5mC]*dT*dT*kG*kA*kT) [compound 799295]” the “% Inhibition” value was 30%.

Same assay, conditions: Hep3B cells, electroporation with 10,000 nM antisense oligonucleotide, approximately 24 hours, SMAD7 mRNA by RT-PCR (RTS5062), relative to untreated control cells
For “798665 (k[5mC]*kA*kG*dT*d[5mC]*dT*d[5mC]*d[5mC]*d[5mC]*dG*dG*dA*dG*kG*k[5mC]*k[5mC]; antisense) [compound 798665]”, the “% Inhibition” value was 7%.
“799868 (k[5mC]*kA*kT*dA*dA*dA*d[5mC]*dA*dT*dG*dG*dG*d[5mC]*kT*k[5mC]*k[5mC]; antisense) [compound 799868]” was tested, and the “% Inhibition” value was 34%.
In the case of “830130 (antisense k[5mC]*k[5mC]*kA*d[5mC]*d[5mC]*dT*d[5mC]*d[5mC]*dG*dA*dG*dG*d[5mC]*kA*k[5mC]*k[5mC]) [compound 830130]”, the “% Inhibition” value is reported as 32%.
“798814 (kA*k[5mC]*k[5mC]*dA*dG*dT*dG*dT*dG*dA*d[5mC]*d[5mC]*dG*kA*kT*k[5mC]; antisense) [compound 798814]” was tested, and the “% Inhibition” value was 25%.
“799946 (antisense kT*k[5mC]*kA*dG*dA*dA*d[5mC]*dA*d[5mC]*dA*d[5mC]*dT*dT*kT*kG*kG) [compound 799946]” was tested, and the “% Inhibition” value was 2%.
With “830184 (antisense kA*k[5mC]*kG*dG*dT*dT*dG*d[5mC]*d[5mC]*dT*d[5mC]*dA*dT*k[5mC]*k[5mC]*kT) [compound 830184]” the “% Inhibition” value was 48%.
With “830211 (kA*kG*kA*d[5mC]*d[5mC]*dG*dG*dA*dA*dG*dT*d[5mC]*dT*kT*kG*kT; antisense) [compound 830211]” the “% Inhibition” value was 30%.
“798882 (kA*kG*k[5mC]*d[5mC]*d[5mC]*dG*dT*d[5mC]*d[5mC]*dA*d[5mC]*dG*dG*k[5mC]*kT*kG; antisense) [compound 798882]” was tested, and the “% Inhibition” value was 0%.
With “830110 (k[5mC]*k[5mC]*kA*dT*dT*d[5mC]*dA*dT*dT*dA*dA*dG*d[5mC]*k[5mC]*k[5mC]*kG; antisense) [compound 830110]” the “% Inhibition” value was 36%.
In the case of “799453 (antisense kA*k[5mC]*kA*d[5mC]*dA*dG*d[5mC]*dA*d[5mC]*dT*dG*d[5mC]*d[5mC]*kA*kG*kG) [compound 799453]”, the “% Inhibition” value is reported as 58%.
“798869 (kA*kA*k[5mC]*dA*d[5mC]*d[5mC]*dT*dT*dG*dT*dG*dT*dA*k[5mC]*k[5mC]*kA; antisense) [compound 798869]” was tested, and the “% Inhibition” value was 41%.
In the case of “799375 (antisense kG*k[5mC]*k[5mC]*dT*dA*dT*dA*d[5mC]*dT*dT*d[5mC]*dT*dG*kA*kA*kA) [compound 799375]”, the “% Inhibition” value is reported as 10%.
For “799850 (kG*k[5mC]*kA*dA*dT*dA*dA*dA*dT*d[5mC]*dA*dA*d[5mC]*k[5mC]*kA*kG; antisense) [compound 799850]”, the “% Inhibition” value was 49%.
With “830129 (antisense k[5mC]*kA*k[5mC]*d[5mC]*dT*d[5mC]*d[5mC]*dG*dA*dG*dG*d[5mC]*dA*k[5mC]*k[5mC]*kA) [compound 830129]” the “% Inhibition” value was 41%.
“772889 (k[5mC]*kT*k[5mC]*d[5mC]*dA*dT*dT*d[5mC]*dA*dT*dA*dA*dT*kA*kT*kT; antisense) [compound 772889]” was tested, and the “% Inhibition” value was 7%.

Same assay, conditions: Hep3B cells, electroporation with 10,000 nM antisense oligonucleotide, approximately 24 hours, primer probe set RTS5062, relative to untreated control cells
With “799174 (antisense kA*kG*kT*d[5mC]*dT*dA*dA*dA*d[5mC]*dA*dT*dG*d[5mC]*kT*k[5mC]*kA) [compound 799174]” the “% Inhibition” value was 42%.
“798977 (antisense kT*kG*k[5mC]*dT*dT*dG*dG*dA*dT*dT*dT*d[5mC]*dT*kG*k[5mC]*kT) [compound 798977]” was tested, and the “% Inhibition” value was 43%.
With “799180 (antisense kG*kA*kA*dA*dA*dA*dT*dA*dG*d[5mC]*dT*dT*dA*kT*kG*kT) [compound 799180]” the “% Inhibition” value was 20%.
For “790630 (kG*kG*kA*dA*d[5mC]*dA*dT*dA*dA*dA*d[5mC]*dT*d[5mC]*k[5mC]*kT*kT; antisense) [compound 790630]”, the “% Inhibition” value was 0%.
With “799380 (antisense k[5mC]*kT*k[5mC]*d[5mC]*dT*dA*d[5mC]*dT*dG*dT*dA*dA*dG*kA*kG*kG) [compound 799380]” the “% inhibition of SMAD7 mRNA expression” value was 1%.
In the case of “799341 (kG*kA*kA*dG*dG*dA*dA*dA*dA*dA*dG*dT*dA*kG*kG*kG; antisense) [compound 799341]”, the “% inhibition of SMAD7 mRNA expression” value is reported as 8%.
In the case of “799225 (kA*k[5mC]*kA*d[5mC]*d[5mC]*dA*dA*dT*d[5mC]*dT*dT*dG*dT*kG*kT*kT; antisense) [compound 799225]”, the “% Inhibition” value is reported as 4%.
For “799137 (antisense kA*kA*kT*d[5mC]*d[5mC]*dT*dT*d[5mC]*dT*dT*dG*dG*dA*kG*kG*kG) [compound 799137]”, the “% Inhibition” value was 49%.
For “799264 (antisense k[5mC]*k[5mC]*kA*dT*d[5mC]*d[5mC]*dA*dA*d[5mC]*dT*d[5mC]*dT*d[5mC]*kT*kT*kT) [compound 799264]”, the “% inhibition of SMAD7 mRNA expression” value was 16%.
In the case of “799164 (antisense kT*k[5mC]*kG*dA*dA*dG*dT*dA*dT*d[5mC]*dA*dT*dA*k[5mC]*kG*kA) [compound 799164]”, the “% inhibition of SMAD7 mRNA expression” value is reported as 37%.
For “772555 (antisense kA*kG*kG*d[5mC]*dA*d[5mC]*dG*d[5mC]*dG*dG*dT*dG*d[5mC]*kG*k[5mC]*kG) [compound 772555]”, the “% inhibition of SMAD7 mRNA expression” value was 23%.
“798939 (antisense kA*k[5mC]*kG*dA*d[5mC]*d[5mC]*dA*dA*dA*dG*dA*dG*dT*kT*kT*kG) [compound 798939]” was tested, and the “% Inhibition” value was 46%.
In the case of “798779 (kA*kT*kT*d[5mC]*dA*d[5mC]*dA*dG*d[5mC]*dA*dA*d[5mC]*dA*k[5mC]*kA*kG; antisense) [compound 798779]”, the “% inhibition of SMAD7 mRNA expression” value is reported as 31%.

Same assay, conditions: Hep3B cells, electroporation, 10,000 nM antisense oligonucleotide, approximately 24 hours, RTS5062, relative to untreated control cells
In the case of “799778 (kG*k[5mC]*kA*d[5mC]*dA*d[5mC]*d[5mC]*dT*dT*d[5mC]*d[5mC]*dA*dA*kG*k[5mC]*kA; antisense) [compound 799778]”, the “% inhibition of SMAD7 mRNA expression” value is reported as 10%.
With “799582 (kA*k[5mC]*kA*dA*dA*d[5mC]*d[5mC]*dT*dT*d[5mC]*d[5mC]*dG*dA*kA*kA*kG; antisense) [compound 799582]” the “% inhibition of SMAD7 mRNA expression” value was 19%.
In the case of “799758 (antisense k[5mC]*kA*k[5mC]*d[5mC]*dG*dT*dT*dA*d[5mC]*dT*dG*dG*dA*k[5mC]*kA*k[5mC]) [compound 799758]”, the “% inhibition of SMAD7 mRNA expression” value is reported as 57%.

Same assay, conditions: SMAD7 mRNA, Hep3B cells, 10,000 nM antisense oligonucleotide, electroporation, approximately 24 hours, primer probe set RTS5062, relative to untreated control cells
In the case of “790516 (kG*kT*kA*dA*d[5mC]*dT*dG*d[5mC]*dT*dG*d[5mC]*dG*dG*kT*kT*kG; antisense) [compound 790516]”, the “% Inhibition” value is reported as 45%.
For “772571 (antisense k[5mC]*k[5mC]*kG*dT*dA*dA*dG*dA*dT*dT*d[5mC]*dA*d[5mC]*kA*kG*k[5mC]) [compound 772571]”, the “% Inhibition” value was 50%.

Same assay, conditions: SMAD7 mRNA, Hep3B cells, electroporation with 10,000 nM antisense oligonucleotide, approximately 24 hours, primer probe set RTS5062, relative to untreated control cells
“829887 (antisense k[5mC]*kG*kT*dG*dG*dT*d[5mC]*dA*dT*dT*dG*dG*dG*k[5mC]*k[5mC]*kG) [compound 829887]” was tested, and the “% Inhibition” value was 47%.
With “829998 (kT*kG*kT*dT*dT*dG*dT*d[5mC]*dT*dT*dA*dG*d[5mC]*kT*kG*kT; antisense) [compound 829998]” the “% Inhibition” value was 34%.
With “829919 (antisense k[5mC]*kG*kA*dG*dT*dG*dT*dA*dT*dG*dA*dG*dT*kT*kG*kT) [compound 829919]” the “% Inhibition” value was 47%.
With “829861 (antisense k[5mC]*k[5mC]*kA*dT*d[5mC]*d[5mC]*dA*d[5mC]*d[5mC]*dT*d[5mC]*d[5mC]*d[5mC]*kG*k[5mC]*kG) [compound 829861]” the “% Inhibition” value was 35%.
With “829965 (k[5mC]*kT*k[5mC]*dA*d[5mC]*d[5mC]*dT*dA*dG*dT*dT*d[5mC]*dG*k[5mC]*kA*kG; antisense) [compound 829965]” the “% Inhibition” value was 0%.
“830004 (antisense kT*kA*kA*dA*dG*dG*d[5mC]*d[5mC]*d[5mC]*dA*dG*d[5mC]*d[5mC]*kA*kT*kG) [compound 830004]” was tested, and the “% Inhibition” value was 24%.
With “830013 (antisense kG*kT*kG*d[5mC]*d[5mC]*dA*dG*dT*d[5mC]*dT*d[5mC]*dA*dA*kA*kT*kG) [compound 830013]” the “% Inhibition” value was 55%.
